According to PMC5338263, “GS-5734 and its parent nucleoside analog inhibit Filo-, Pneumo-, and Paramyxoviruses” (Scientific Reports, 2017):
“Also recorded” adds a separate entry of the source. Like-named read-outs stand apart in the source and are kept apart here.

Key:
VSV New Jersey = assay: microbe, parasite or virus in culture; assay type: cell-based, Vesicular Stomatitis virus
EBOV minigenome = assay: cells; assay type: cell-based, Ebola virus
NiV minigenome = assay: cells; assay type: cell-based, Nipah virus
Filo (filoviruses) [1] = assay: organism not typed; assay type: cell-based; settings: read-out: potency class (EC50)
Pneumo = assay: Potency by virus family (Fig. 2), Pneumo; assay type: cell-based; settings: read-out: potency class (EC50)
Paramyxo = assay: Potency by virus family (Fig. 2), Paramyxo; assay type: cell-based; settings: read-out: potency class (EC50)
Bunya = assay: Potency by virus family (Fig. 2), Bunya; assay type: cell-based; settings: read-out: potency class (EC50)
Rhabdo = assay: Potency by virus family (Fig. 2), Rhabdo; assay type: cell-based; settings: read-out: potency class (EC50)
MARV Rec. Bat371-Gluc [2] = system: MARV Rec. Bat371-Gluc
HeV 1996 [3] = system: HeV 1996
Filo (filoviruses) [4] = settings: cited from earlier work
Corona (coronaviruses) = settings: cited from earlier work
HCV = settings: cited from earlier work
Ebola virus [5] = settings: in vivo; cited from earlier work
Ebola virus [6] = settings: human, in vivo; cited from earlier work
[7] = system: EBOV Rec. Mayinga-GFP (Ebola virus); assay: in vitro; settings: human
[8] = system: MARV Rec. Bat371-Gluc (Marburg virus); assay: in vitro; settings: human
NiV B-2004 (Nipah virus) [9] = assay: in vitro; settings: human
[10] = system: AHFV 200300001 (Alkhurma Hemorrhagic Fever virus); assay: in vitro; settings: human
[11] = system: KFDV P9605 (Kyasanur Forest Disease virus); assay: in vitro; settings: human
[12] = system: TBEV Hypr (Tick-borne Encephalitis virus); assay: in vitro; settings: human
MARV Rec. Bat371-Gluc [13] = assay: organism not typed; settings: Huh-7
[14] = system: reporter and wild-type filo-, pneumo-, and paramyxoviruses; assay: organism not typed; settings: read-out: EC50 values (range over viruses)
EBOV Makona = assay: microbe, parasite or virus in culture; settings: Zaire ebolavirus
NiV Rec. M-GFP2AM = assay: microbe, parasite or virus in culture; settings: Henipavirus nipahense, HeLa
HeV 1996 [15] = assay: microbe, parasite or virus in culture; settings: Henipavirus hendraense, HeLa
hPIV3 Rec. JS-GFP = assay: microbe, parasite or virus in culture; settings: Human respirovirus 3, HeLa
ANDV Chile 9717869 = assay: microbe, parasite or virus in culture; settings: Orthohantavirus andesense, Huh-7
[16] = Cell viability assay (CellTiter-Glo 2.0), HMVEC-L; settings: human
[17] = Cell viability assay (CellTiter-Glo 2.0), macrophages; settings: human, uninfected peripheral blood macrophages (Mϕ)
EBOV wt Makona = assay: microbe, parasite or virus in culture; assay type: cell-based, Ebola virus; settings: Zaire ebolavirus, Huh-7
[18] = system: recombinant reporter-expressing NiV, EBOV, and Marburg viruses (MARV); assay: microbe, parasite or virus in culture; assay type: cell-based; settings: Zaire ebolavirus, read-out: EC50 values (range over viruses)
MV, hPIV3, hMPV, and RSV = assay: organism not typed; assay type: cell-based; settings: read-out: EC50 values (range over viruses)
WNV = settings: cited from earlier work
SARS-CoV = settings: cited from earlier work
hPIV3 = settings: cited from earlier work
NiV B-2004 (Nipah virus) [19] = assay: in vitro; settings: human; remark: listed apart in the source
HeV 1996 (Hendra virus) = assay: in vitro; settings: human
[20] = system: MV EZ vaccine (Measles virus); assay: in vitro; settings: human
[21] = Cell viability assay (CellTiter-Glo 2.0), 293T/17; settings: human, uninfected 293T/17 cells
[22] = Vesicular stomatitis virus, HeLa

Structure (SMILES): CCC(CC)COC(=O)[C@H](C)N[P@](=O)(OC[C@H]1O[C@@](C#N)(c2ccc3c(N)ncnn23)[C@H](O)[C@@H]1O)Oc1ccccc1 [GS-5734]
- EC50 (VSV New Jersey): not inhibited; also recorded: No inhibition
- EC50 (VSV New Jersey; [22]): > 10000 nM
- EC50 (EBOV minigenome): sub-micromolar range
- EC50 (EBOV minigenome; Zaire ebolavirus, Huh-7, 48 h): 420 nM
- EC50 (NiV minigenome): sub-micromolar range
- EC50 (NiV minigenome; Henipavirus nipahense, HeLa, 48 h): 49 nM
- EC50 (Filo (filoviruses) [1]): < 100 nM
- EC50 (Pneumo): < 100 nM
- EC50 (Paramyxo): < 100 nM
- EC50 (Bunya): > 4000 nM
- EC50 (Rhabdo): > 4000 nM
- EC50 (MARV Rec. Bat371-Gluc [2]): 19 nM
- EC50 (NiV B-2004): 32 nM
- EC50 (HeV 1996 [3]): 55 nM
- EC50 (RSV Rec. rgRSV224 (A2)): 21 nM
- EC50 (LASV Josiah): 4500 nM
- EC50 (AHFV 200300001): 4200 nM
- activity in cell-based antiviral assays (Filo (filoviruses) [4]): shown activity
- activity in cell-based antiviral assays (Corona (coronaviruses)): shown activity
- inhibition of virus (HCV; not tested in this paper, no reference given): inhibited
- protection from lethal Ebola virus infection (Ebola virus [5]): protected
- survival of patients (Ebola virus [6]): both of whom survived
- selectivity ratio [7]: 151
- selectivity ratio [8]: 526
- selectivity ratio (NiV B-2004 (Nipah virus) [9]): 259
- selectivity ratio [10]: 2.4
- selectivity ratio [11]: 5.6
- selectivity ratio [12]: 4.8
- EC50 (MARV Rec. Bat371-Gluc [13]): 19.3 nM
- EC90 (MARV Rec. Bat371-Gluc [13]): 52 nM
- EC50 [14]: 3 to 790 nM
- EC50 (EBOV Makona; Macrophage): 3.4 nM
- EC90 (EBOV Makona; Macrophage): 19 nM
- EC50 (NiV Rec. M-GFP2AM): 28.7 nM
- EC90 (NiV Rec. M-GFP2AM): 53 nM
- EC50 (HeV 1996 [15]): 54.8 ± 1.3 nM
- EC90 (HeV 1996 [15]): 117 nM
- EC50 (hPIV3 Rec. JS-GFP): 17.7 ± 3.7 nM
- EC90 (hPIV3 Rec. JS-GFP): 350 nM
- EC50 (ANDV Chile 9717869): 6950 ± 3100 nM
- EC90 (ANDV Chile 9717869): 10100 nM
- CC50 at 72 h [16]: 8500 nM
- CC50 at 72 h [17]: 2000 nM

Structure (SMILES): N#C[C@@]1(c2ccc3c(N)ncnn23)O[C@H](CO)[C@@H](O)[C@H]1O [Nuc]
- EC50 (VSV New Jersey): little to no antiviral activity; also recorded: No inhibition
- EC50 (VSV New Jersey; [22]): > 50000 nM
- EC50 (EBOV wt Makona): 1610 ± 420 nM
- EC50 [18]: 1000 to 3000 nM
- EC50 (MV, hPIV3, hMPV, and RSV): 500 to 2000 nM
- EC50 (EBOV Rec. Mayinga-GFP): 1600 nM
- EC50 (MV EZ vaccine): 2000 nM
- antiviral activity (active or not) (HCV): active
- antiviral activity (active or not) (HCV; listed as GS-441524): shown to have activity
- antiviral activity (active or not) (WNV): not
- antiviral activity (active or not) (SARS-CoV): shown to have activity
- antiviral activity (active or not) (hPIV3): shown to have activity
- selectivity ratio [7]: 31
- selectivity ratio (NiV B-2004 (Nipah virus) [19]): 60
- selectivity ratio (HeV 1996 (Hendra virus)): 50
- selectivity ratio [20]: 25
- EC50 (EBOV Makona; Huh-7): 1020 nM
- EC90 (EBOV Makona; Huh-7): 2500 nM
- EC50 (NiV Rec. M-GFP2AM): 2230 ± 1400 nM
- EC90 (NiV Rec. M-GFP2AM): 4000 nM
- EC50 (hPIV3 Rec. JS-GFP): 520 ± 80 nM
- EC90 (hPIV3 Rec. JS-GFP): 1000 nM
- CC50 at 72 h [21]: > 50000 nM
